Legend:
[1] = tested on: Normal human keratinocytes; experiment: Screening of expression of junction protein messengers in keratinocytes (PCR array); format: cell-based; settings: 1.5 mM, 24 hours, Control: 100%
Description: The activity of Acacia hydrolysate was studied by quantitative RT-PCR on the level of expression of 16 genes mainly coding for tight junction proteins as well as for the major proteins of the communicating junctions of the epidermis. […] The expression of the markers was evaluated by quantitative RT-PCR (PCR array). The variation in the expression of the markers studied compared to the control was expressed in percentage (Control: 100%). The levels of expression are classified in the following manner: […]

Normal human fibroblasts = experiment: Gene expression of markers of the dermal matrix and antioxidant defences by fibroblasts (quantitative RT-PCR in real time); format: cell-based; settings: 5 ng/ml, 24h
Description: The effect of Acacia hydrolysate on the modulation of the extra-cellular matrix of the dermis and on the stimulation of the anti-oxidant defences was evaluated on a dermal fibroblasts model in which the gene expression of elastin, MMP1 and heme oxygenase 1 was studied by quantitative RT-PCR in real time.
Normal human fibroblasts were treated for 24h with 0.01% and 0.05% Acacia hydrolysate (w/v) or with the reference TGFβ1 at 5 ng/ml. The gene expression of the selected markers was analysed by quantitative RT-PCR in real time.
The results were analysed statistically by a one-way variance analysis (ANOVA) followed by a Dunnett test: • ns p>0.05: not significant • *0.01<p<0.05: significant • **0.001<p<0.01: very significant • ***p<0.001: highly significant
The level of gene expression was expressed in relative quantity (RQ) and the effect of the treatment in relation to the control cells in percentage increase or inhibition.

| Compound | Cingulin messenger expression [1] [% Control] | Claudin 1 messenger expression [1] [% Control] | Gap junction protein (β2 messenger expression) [1] [% Control] | Occludin messenger expression [1] [% Control] | ELASTIN gene expression, percentage increase or inhibition vs control cells (Normal human fibroblasts) | MMP1 gene expression, percentage increase or inhibition vs control cells (Normal human fibroblasts) [%] | ELASTIN gene expression, relative quantity (RQ) (Normal human fibroblasts; control cells 1.00) | MMP1 gene expression, relative quantity (RQ) (Normal human fibroblasts; control cells 1.00) |
| --- | --- | --- | --- | --- | --- | --- | --- | --- |
| [Ca+2].[Cl-].[Cl-] [CaCl2, calcium chloride] | 337 | 216 | 43 | 445 | – | – | – | – |
| TGFβ1: reference TGFβ1 at 5 ng/ml | – | – | – | – | +559% | −88 | 6.59 | 0.12 |

Reference: US8642553B2, “Acacia macrostachya seed extract and compositions containing same” (Laboratoires Expanscience, priority 2009, dated 2014)
